Experimental data taken from ChEMBL document CHEMBL5344465, “Innovations in Pharmacology: Enhancing Bioavailability and Efficacy through Novel Compositions” (ACS Med Chem Lett, 2024).
The source made the active and inactive calls.

Assays:
Format in all cases: functional, cell-based
[1] = system: Small intestinal epithelial cell; experiment: Antiinflammatory activity against TNFalpha/INFgamma induced human small intestinal epithelial cells assessed as reduction in COX-2 level
[2] = system: Small intestinal epithelial cell; experiment: Antiinflammatory activity against TNFalpha/INFgamma induced human small intestinal epithelial cells assessed as reduction in IL-6 level
A 172 [3] = experiment: Neuroprotective activity against human A-172 cells assessed as effect on GABA level
A 172 [4] = experiment: Neuroprotective activity against human A-172 cells assessed as effect on BDNF level

Measured: Activity

C=CCc1ccc(O)c(OC)c1
active: all assays above

CN(C)CCc1c[nH]c2cccc(OP(=O)(O)O)c12
active: all assays above
